According to patent publication US7186413B2, “Hydrogels and water soluble polymeric carriers for drug delivery” (The Regents of the University of Michigan, priority 1998, dated 2007):
Blank lines part the entries; values can stand above or below the compound they belong to.

Columns and labels:
[1] = release of ionically bound or physically entrapped drugs and dyes from hydrogels; assay type: physicochemical
Procedure: Samples containing 9.8, 19.5, and 39.1 mg brilliant blue per gram of PAG either with or without calcium (which enhances gelling) were studied over a period of several weeks.

KB cells = assay: standard cytotoxicity assay with KB cells
Procedure: The activity of covalently bound daunomycin released from 6 wt % PAG gels was tested using KB cells in a standard cytotoxicity assay. Gels containing either zero, 13.3 or 30 mg of drug per gram of PAG were incubated in sterile media at 37° C. which was tested and replaced weekly.
The biocompatibility of PAG has been tested in vitro.
Sodium periodate, adipic dihydrazide, ethylene glycol, and calcium chloride were purchased from Aldrich Chemical Company (Milwaukee, Wis.) and were used as received. Daunomycin hydrochloride was purchased from Fluka Chemical Corporation (Ronkonkoma, N.Y.). Dulbecco's Modified Eagle's Medium (DMEM) was purchased from Life Technologies (Grand Island, N.Y.). […] The elution of the drug was monitored at 480 nm. • Synthesis of the poly(aldehyde guluronate), PAG. […] The product was analyzed by ^1H-NMR, FTIR, and the aldehyde content was quantified using trinitrobenzene sulfonic acid. • Preparation of cross-linked PAG hydrogels. […] To quantify the amount of daunomycin that is incorporated in the gels, two sets of hydrogels were formed as described above. […] The solutions were then sonicated for 30 minutes, quantitatively transferred to 5 ml volumetric flasks, and diluted with double distilled water. […]

[2] = in vitro release of daunomycin from cross-linked PAG hydrogels; assay type: physicochemical
[3] = determination of the drug incorporated (retained) in PAG hydrogel; assay type: physicochemical; details: lyophilized, crushed PAG hydrogel extracted with water
Procedure: The reaction described in Example 2 was utilized to incorporate daunomycin into hydrogels for localized drug delivery. HPLC was used to determine the amount of daunomycin that reacted with adipic dihydrazide before the addition of PAG. Mixtures of daunomycin and adipic dihydrazide were analyzed and found to contain 88.5% of the daunomycin-adipic dihydrazide conjugate and 11.5% of free drug (FIG. 21). The amount of daunomycin that was covalently incorporated into the hydrogel was next determined by quantifying the amount of free drug in the hydrogel. Hydrogels containing daunomycin or trypan blue were synthesized, frozen, lyophilized, and crushed to form powders. The free drug was then dissolved in water and the resulting mixture was filtered to remove any fine particles. The concentration of the free drug was then determined spectrophotometrically. […] Only two percent of the trypan blue was retained in the hydrogel. In comparison, 86.9±0.1% of daunomycin remained in the gelatinous particles. Moreover, hydrogels containing trypan blue that were incubated in DMEM released the entire drug within 24 hours. These findings clearly indicate that daunomycin is covalently coupled to the hydrogel through the adipic dihydrazide molecule. The daunomycin incorporation in the hydrogels correlates well with the percentage of daunomycin-adipic dihydrazide conjugate that was determined by HPLC analysis. […]

time to quantitative release from the hydrogels ([1]; physically entrapped, diffusion, all conditions): ≤ 5 days
Compound: CN(Cc1cnc2nc(N)nc(N)c2n1)c1ccc(C(=O)N[C@@H](CCC(=O)O)C(=O)O)cc1 [Methotrexate]

Compound: O=C1c2c(O)ccc(O)c2C(=O)c2c(NCCNCCO)ccc(NCCNCCO)c21 [Mitoxantrone]
cytotoxicity of drug alone versus mixed with AAD (prodrug formation, FIG. 9) (KB cells; mixed with AAD): not found to form a prodrug

Compound: COc1cccc2c1C(=O)c1c(O)c3c(c(O)c1C2=O)C[C@@](O)(C(C)=O)C[C@@H]3O[C@H]1C[C@H](N)[C@H](O)[C@H](C)O1 [daunomycin]
drug released during the first six weeks ([2]; 6% w/w PAG, 150 mM AAD, 40 mM calcium): 40% | release rate of drug from hydrogel ([2]; 6% w/w PAG, 150 mM AAD, 40 mM calcium, first six weeks): 0.8 % drug per day | time to release of all incorporated drug ([2]; 6% w/w PAG, 150 mM AAD, absence of calcium): four | release rate of drug from hydrogel ([2]; 6% w/w PAG, 150 mM adipic dihydrazide, acidic medium): 1.8 % per day | release rate of drug from hydrogel ([2]; 6% w/w PAG, 150 mM adipic dihydrazide, neutral condition): 1 % per day | time to release of total incorporated drug ([2]; 6 wt % PAG, 8 mM daunomycin, 150 mM AAD): thirty | release rate of drug from hydrogel ([2]; 6 wt % PAG, 8 mM daunomycin, 150 mM AAD, first ten days, DMEM 37° C.): 1 % drug per day | release rate of drug from hydrogel ([2]; 6 wt % PAG, 8 mM daunomycin, 150 mM AAD, following twenty-two days): approximately 4 % per day | time to release of total drug loaded ([2]; 6 wt % PAG, 50 mM AAD cross-linker): two | time to release of total drug loaded ([2]; 6 wt % PAG, 100 mM AAD): two | time to release of total drug loaded ([2]; 6 wt % PAG, elevated AAD concentrations): more than six | fraction retained in the hydrogel particles [3]: 86.9±0.1% | IC50 (KB cells; Homo sapiens, KB, 48 h): 202 ± 48 nM

time to release of the entire drug from hydrogel ([1]; PAG hydrogels incubated in DMEM): ≤ 24 h | fraction retained in the hydrogel particles [3]: two
Compound: Cc1cc(-c2ccc(/N=N/c3c(S(=O)(=O)O)cc4cc(S(=O)(=O)O)cc(N)c4c3O)c(C)c2)ccc1/N=N/c1c(S(=O)(=O)O)cc2cc(S(=O)(=O)O)cc(N)c2c1O [trypan blue]
